From patent US10633389B2, “CARM1 inhibitors and uses thereof” (Epizyme, Inc., priority 2013, dated 2020) come the findings set out here.

SMILES strings stand for the structures. pIC50: −log10 of the molar value.

In one test the test system is NCI-H929 cells. Nature of the test: Human myeloma cell line 14-day proliferation assay, NCI-H929. In kind it is cell-based. Conditions: NCI-H929 Human Multiple Myeloma cell line, varying doses, 14-day proliferation assay (FIG. 1A). As to the method:
(§1) FIGS. 1A and 1B show cell proliferation in response to the presence of compounds of the current invention. Human Multiple Myeloma cell lines NCI-H929 (FIG. 1A) and U266B1 (FIG. 1B) were treated with varying doses of 304-1a (medium grey data points), 23-3 (light grey data points), and 113-3 (black data points) in a 14-day proliferation assay. At the end of the experiment, total cell number was determined for each cell line for different doses of 304-1a, 23-3, and 113-3.
(§2) Human Multiple Myeloma cell lines NCI-H929 (FIG. 1A) and U266B1 (FIG. 1B) were treated with varying doses of 304-1a (medium grey data points), 23-3 (light grey data points), and 113-3 (black data points) in a 14-day proliferation assay. At the end of the experiment, total cell number was determined for each cell line for different doses of 304-1a, 23-3, and 113-3.

Another test has as its system U266B1 cells. Briefly: Human myeloma cell line 14-day proliferation assay, U266B1. In kind it is cell-based. Conditions: U266B1 Human Multiple Myeloma cell line, varying doses, 14-day proliferation assay (FIG. 1B). Here is the method:
as §1, §2

The subject of test [1] is asymmetric di-methyl PABP1 in RKO cells. Nature of the test: RKO methylation assay, In Cell Western (ICW) for asymmetric di-methyl PABP1. Conditions: Homo sapiens, RKO, Cellular potencies, ICW PABP1me2a. In kind it is cell-based. Summed up: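 In-cell Western on fixed RKO cells after 48 h compound exposure: anti-asymmetric di-methyl PABP1 signal at 800 nm over DRAQ5 DNA signal at 700 nm. Percent inhibition set between DMSO wells and wells with 20 μM reference compound; IC50 curves fitted in triplicate.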

For the next test, the target named is human CARM1 (PRMT4) (Homo sapiens (Human), UniProt Q86X55). Briefly: CARM1 enzyme assay on peptide substrate (3H-SAM Flashplate). Conditions: Biochemical potencies, read-out: Biochem IC50.
Sequence of human CARM1 (PRMT4) (Q86X55 other isoform, or with tags, fused parts or gaps isoform Q86X55-1): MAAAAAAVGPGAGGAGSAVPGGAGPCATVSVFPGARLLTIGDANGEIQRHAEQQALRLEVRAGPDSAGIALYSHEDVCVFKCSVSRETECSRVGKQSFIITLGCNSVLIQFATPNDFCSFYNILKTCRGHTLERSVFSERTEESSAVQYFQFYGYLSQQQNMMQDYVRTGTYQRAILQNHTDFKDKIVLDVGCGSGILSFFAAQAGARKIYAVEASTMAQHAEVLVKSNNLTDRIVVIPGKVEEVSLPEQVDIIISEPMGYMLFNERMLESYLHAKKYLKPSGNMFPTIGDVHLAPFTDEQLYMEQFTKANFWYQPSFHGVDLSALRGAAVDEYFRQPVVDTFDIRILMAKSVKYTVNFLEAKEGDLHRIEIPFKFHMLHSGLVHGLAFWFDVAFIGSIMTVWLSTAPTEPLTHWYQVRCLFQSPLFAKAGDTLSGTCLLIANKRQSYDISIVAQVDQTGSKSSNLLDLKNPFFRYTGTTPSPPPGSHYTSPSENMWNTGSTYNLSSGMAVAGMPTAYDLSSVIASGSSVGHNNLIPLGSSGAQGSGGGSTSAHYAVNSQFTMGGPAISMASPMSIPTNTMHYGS

As for `CCOC(=O)N1CCOC[C@@H]1CNc1nc(-c2cc(OC[C@H](O)CNC)ccc2Cl)nc(-c2c(C)noc2C)c1C` [Example 23-3], the “cell proliferation (total cell number)” value in the test with NCI-H929 cells and in the test on U266B1 cells was “decreased the proliferation” each time. Also, the pIC50 in test [1] is more than 5.30.
For `CNC[C@@H](O)COc1ccc(Cl)c(-c2nc(-c3c(C)noc3C)c(C)c(N3Cc4cccnc4C3)n2)c1` [Example 113-3], the “cell proliferation (total cell number)” value with NCI-H929 cells and in the test with U266B1 cells was “decreased the proliferation” throughout. Besides, the pIC50 in test [1] is more than 5.30.
On to `CNC[C@@H](O)COc1ccc(Cl)c(-c2nc(NC3CCN(C(=O)OC)CC3)c(Cl)c(-c3c(C)noc3C)n2)c1` [Example 304-1a], for which the “cell proliferation (total cell number)” value with NCI-H929 cells and in the test with U266B1 cells was “decreased the proliferation” throughout. In addition, the pIC50 in test [1] was more than 5.30.
Take `CNCC(O)COc1cccc(-c2nc(N[C@@H]3CCOC3)c(C)c(N3CC[C@H](N(C)C(C)=O)C3)n2)c1` (stereo partly drawn) [Example 430-1a]: the negative-log IC50 (pIC50) was 4.70 to 5.00 in test [1] and 6.00 to 7.00 at human CARM1 (PRMT4).
Taken in the same sequence, the figures for `CNCC(O)COc1cccc(-c2nc(C3=CCCC3)cc(C(CCOC)CCOC)n2)c1` (stereo not drawn) [Example 651-1a] were not above 4.70 and 6.00 to 7.00.
Regarding `CNCC(O)COc1cccc(-c2nc(N[C@H]3C[C@@H](O)C3)cc(N(C)C3CCOCC3)n2)c1` (stereo partly drawn) [Example 599-1a], the pIC50 is 4.70 to 5.00 in test [1] and 6.00 to 7.00 on human CARM1 (PRMT4).
Consider `CNCC(O)COc1cccc(-c2nc(NC3CCOCC3)c(C)c(N3CCN(C4CC4)CC3)n2)c1` (stereo not drawn) [Example 663-1a], for which the pIC50 in test [1] is not above 4.70; at human CARM1 (PRMT4), 6.00 to 7.00.
Taken in the same sequence, the figures for `CNCC(O)COc1cccc(-c2nc(NCCOC)cc(-c3ccc(S(C)(=O)=O)cc3)n2)c1` (stereo not drawn) [Example 637-1a] were not above 4.70 and 6.00 to 7.00.
Consider `CNCC(O)COc1cccc(-c2nc(N3CCN(S(C)(=O)=O)[C@@H](C)C3)cc(N(C)C3CCOCC3)n2)c1` (stereo partly drawn) [Example 520-1a], for which the pIC50 in test [1] was 5.00 to 5.30; at human CARM1 (PRMT4), 6.00 to 7.00.
Taken in the same sequence, the figures for `CNCC(O)COc1cccc(-c2nc(N3CCN(C(C)=O)[C@@H](C)C3)c(C)c(N(C)[C@@H]3CCOC3)n2)c1` (stereo partly drawn) [Example 410-1a] were 5.00 to 5.30 and 6.00 to 7.00.
On to `CNCC(O)COc1cccc(-c2nc(N3CCCC4(CCOCC4)C3)cc(N(C)C3CCOCC3)n2)c1` (stereo not drawn) [Example 494-1a], for which the pIC50 in test [1] is more than 5.30; at human CARM1 (PRMT4) it was 6.00 to 7.00.
For `CNCC(O)COc1cccc(-c2nc(-c3ccn4cnnc4c3)c(C)c(-c3c(C)noc3C)n2)c1` (stereo not drawn) [Example 37-1a] the same measures were 4.70 to 5.00 and 6.00 to 7.00.
Taken in the same sequence, the figures for `CNCC(O)COc1cccc(-c2nc(N[C@@H]3CCOC3)c(C)c(-c3ccnn3C)n2)c1` (stereo partly drawn) [Example 337-1a] were 5.00 to 5.30 and 6.00 to 7.00.
Consider `CNCC(O)COc1cccc(-c2nc(NCCCN3CCCC3=O)cc(-c3cccc4ncccc34)n2)c1` (stereo not drawn) [Example 648-1a], for which the pIC50 in test [1] is not above 4.70; on human CARM1 (PRMT4) it was 6.00 to 7.00.
In the case of `CNCC(O)COc1cccc(-c2nc(Nc3c(C)nn(C)c3C)cc(N(C)C3CCOCC3)n2)c1` (stereo not drawn) [Example 555-1a], the figures for the pIC50 (in test [1]; at human CARM1 (PRMT4)) were 4.70 to 5.00 and 6.00 to 7.00, respectively.
